The results in this text go back to patent publication US20090291095A1, “NANOEMULSION ADJUVANTS” (The Regents of the University of Michigan, priority 2008, published 2009).

In this experiment the test system is virus. Nature of the experiment: Virus inactivation by BCTP component. The settings on record: concentrations equivalent to 11% BCTP.

With TRITON-X100, the “ability to inactivate a virus” value is reported as “less ability to inactivate a virus”.
